Measured values from publication PMC10326263 (Acta Pharmaceutica Sinica. B, 2023).

Legend:
[1] = Cytotoxicity in mock-infected MT-4 cells, MTT method; assay type: cell-based; conditions: human, mock-infected MT-4 cells, CC50, mock-infected MT-4 cells
[2] = system: HIV-1 mutant strain L100I; assay: microbe, parasite or virus in culture; assay type: cell-based; conditions: Human immunodeficiency virus 1, MT4, read-out: EC50 L100I
[3] = system: HIV-1 mutant strain F227L + V106A; assay: microbe, parasite or virus in culture; assay type: cell-based; conditions: Human immunodeficiency virus 1, MT4, read-out: EC50 F227L + V106A
[4] = system: HIV-1 mutant strain E138K; assay: microbe, parasite or virus in culture; assay type: cell-based; conditions: Human immunodeficiency virus 1, MT4, read-out: EC50 E138K
[5] = system: HIV-1 mutant strain RES056 (K103N + Y181C); assay: microbe, parasite or virus in culture; assay type: cell-based; conditions: Human immunodeficiency virus 1, MT4, read-out: EC50 RES056
[6] = system: HIV-1 mutant strain K103N; assay: microbe, parasite or virus in culture; assay type: cell-based; conditions: Human immunodeficiency virus 1, MT4, read-out: EC50 K103N
[7] = system: HIV-1 mutant strain Y188L; assay: microbe, parasite or virus in culture; assay type: cell-based; conditions: Human immunodeficiency virus 1, MT4, read-out: EC50 Y188L
[8] = system: HIV-1 mutant strain Y181C; assay: microbe, parasite or virus in culture; assay type: cell-based; conditions: Human immunodeficiency virus 1, MT4, read-out: EC50 Y181C
HIV-1 WT strain (IIIB) = assay: Anti-HIV activity against WT HIV-1; conditions: WT HIV-1 IIIB

Structure (SMILES) | CC50 at 5 days [1] | EC50 [2] | EC50 [3] | EC50 [4] | EC50 [5] | EC50 [6] | EC50 [7] | EC50 [8] | SI IIIB (CC50/EC50 ratio) (HIV-1 WT strain (IIIB))
O=C1Nc2ccc(Cl)cc2[C@@](C#CC2CC2)(C(F)(F)F)O1 [EFV, Efavirenz, reference compound] | > 6340 nM | 32 ± 6 nM | 270 ± 48 nM | 7 ± 1 nM | 480 ± 190 nM | 100 ± 19 nM | 270 ± 16 nM | 7 ± 2 nM | –
Cc1cc(C#N)cc(C)c1Oc1nc(Nc2ccc(C#N)cc2)nc(N)c1Br [ETR, Etravirine, reference compound] | > 4590 nM | 32 ± 28 nM | 88 ± 76 nM | 37 ± 30 nM | 150 ± 120 nM | 15 ± 12 nM | 83 ± 53 nM | 58 ± 41 nM | >900
Cc1ccnc2c1NC(=O)c1cccnc1N2C1CC1 [NVP, Nevirapine, reference compound] | > 15000 nM | 1260 ± 600 nM | > 9520 nM | 95 ± 31 nM | > 9520 nM | 5330 ± 1070 nM | > 9520 nM | > 9520 nM | >114
Cc1ccc(S(=O)(=O)NCCNC(=O)c2[nH]c3ccc(Cl)cc3c2S(=O)(=O)c2cc(C)cc(C)c2)cc1 [R1L2, 5-Chloro-3-((3,5-dimethylphenyl)sulfonyl)-N-(2-((4-methylphenyl)sulfonamido)ethyl)-1H-indole-2-carboxamide] | 168000 ± 17200 nM | 680 ± 390 nM | 1750 ± 200 nM | 860 ± 360 nM | 3380 ± 890 nM | 410 ± 110 nM | 6420 ± 1400 nM | 610 ± 130 nM | 3787
Cc1ccc(S(=O)(=O)NCCCNC(=O)c2[nH]c3ccc(Cl)cc3c2S(=O)(=O)c2cc(C)cc(C)c2)cc1 [R1L3, 5-Chloro-3-((3,5-dimethylphenyl)sulfonyl)-N-(3-((4-methylphenyl)sulfonamido)propyl)-1H-indole-2-carboxamide] | 168000 ± 23500 nM | 540 ± 420 nM | 1260 ± 380 nM | 210 ± 140 nM | 5970 ± 650 nM | 730 ± 140 nM | 7140 ± 1400 nM | 1190 ± 300 nM | 4586
Cc1ccc(S(=O)(=O)NCCCCNC(=O)c2[nH]c3ccc(Cl)cc3c2S(=O)(=O)c2cc(C)cc(C)c2)cc1 [R1L4, 5-Chloro-3-((3,5-dimethylphenyl)sulfonyl)-N-(4-((4-methylphenyl)sulfonamido)butyl)-1H-indole-2-carboxamide] | 103000 ± 59800 nM | 160 ± 85 nM | 310 ± 34 nM | 130 ± 85 nM | > 103000 nM | 310 ± 68 nM | 1520 ± 270 nM | 310 ± 68 nM | 3232
Cc1ccc(S(=O)(=O)NCCCCCNC(=O)c2[nH]c3ccc(Cl)cc3c2S(=O)(=O)c2cc(C)cc(C)c2)cc1 [R1L5, 5-Chloro-3-((3,5-dimethylphenyl)sulfonyl)-N-(5-((4-methylphenyl)sulfonamido)pentyl)-1H-indole-2-carboxamide] | 113000 ± 3740 nM | 170 ± 17 nM | 380 ± 130 nM | 180 ± 17 nM | > 113000 nM | 630 ± 17 nM | 2530 ± 180 nM | 230 ± 17 nM | 4159
COc1ccc(S(=O)(=O)NCCNC(=O)c2[nH]c3ccc(Cl)cc3c2S(=O)(=O)c2cc(C)cc(C)c2)cc1 [R2L2, 5-Chloro-3-((3,5-dimethylphenyl)sulfonyl)-N-(2-((4-methoxyphenyl)sulfonamido)ethyl)-1H-indole-2-carboxamide] | 106000 ± 23000 nM | 660 ± 230 nM | 1580 ± 450 nM | 1110 ± 170 nM | > 106000 nM | 900 ± 380 nM | > 106000 nM | 850 ± 35 nM | 1233
COc1ccc(S(=O)(=O)NCCCNC(=O)c2[nH]c3ccc(Cl)cc3c2S(=O)(=O)c2cc(C)cc(C)c2)cc1 [R2L3, 5-Chloro-3-((3,5-dimethylphenyl)sulfonyl)-N-(3-((4-methoxyphenyl)sulfonamido)propyl)-1H-indole-2-carboxamide] | 163000 ± 15300 nM | 320 nM | 970 ± 51 nM | 250 nM | > 163000 nM | 660 ± 85 nM | 5980 ± 310 nM | 830 ± 68 nM | 4354
COc1ccc(S(=O)(=O)NCCCCNC(=O)c2[nH]c3ccc(Cl)cc3c2S(=O)(=O)c2cc(C)cc(C)c2)cc1 [R2L4, 5-Chloro-3-((3,5-dimethylphenyl)sulfonyl)-N-(4-((4-methoxyphenyl)sulfonamido)butyl)-1H-indole-2-carboxamide] | 22500 ± 9140 nM | 180 nM | 280 ± 33 nM | 250 ± 50 nM | > 22500 nM | 330 ± 33 nM | 800 ± 83 nM | 330 nM | 615
COc1ccc(S(=O)(=O)NCCCCCNC(=O)c2[nH]c3ccc(Cl)cc3c2S(=O)(=O)c2cc(C)cc(C)c2)cc1 [R2L5, 5-Chloro-3-((3,5-dimethylphenyl)sulfonyl)-N-(5-((4-methoxyphenyl)sulfonamido)pentyl)-1H-indole-2-carboxamide] | 110000 ± 7890 nM | 94 ± 47 nM | 280 ± 65 nM | 130 ± 49 nM | > 110000 nM | 570 nM | 1280 ± 440 nM | 190 ± 16 nM | 4772
Cc1cc(C)cc(S(=O)(=O)c2c(C(=O)NCCNS(=O)(=O)c3ccc([N+](=O)[O-])cc3)[nH]c3ccc(Cl)cc23)c1 [R3L2, 5-Chloro-3-((3,5-dimethylphenyl)sulfonyl)-N-(2-((4-nitrophenyl)sulfonamido)ethyl)-1H-indole-2-carboxamide] | > 212000 nM | 950 ± 85 nM | 6170 ± 1140 nM | 1150 nM | > 212000 nM | 590 ± 100 nM | > 212000 nM | 1000 ± 170 nM | >1764
Cc1cc(C)cc(S(=O)(=O)c2c(C(=O)NCCCNS(=O)(=O)c3ccc([N+](=O)[O-])cc3)[nH]c3ccc(Cl)cc23)c1 [R3L3, 5-Chloro-3-((3,5-dimethylphenyl)sulfonyl)-N-(3-((4-nitrophenyl)sulfonamido)propyl)-1H-indole-2-carboxamide] | 23000 ± 600 nM | 350 ± 17 nM | 1770 ± 33 nM | 310 ± 50 nM | 4920 ± 1270 nM | 730 ± 120 nM | 3290 ± 66 nM | 1030 ± 50 nM | 464
Cc1cc(C)cc(S(=O)(=O)c2c(C(=O)NCCCCNS(=O)(=O)c3ccc([N+](=O)[O-])cc3)[nH]c3ccc(Cl)cc23)c1 [R3L4, 5-Chloro-3-((3,5-dimethylphenyl)sulfonyl)-N-(4-((4-nitrophenyl)sulfonamido)butyl)-1H-indole-2-carboxamide] | 104000 ± 31400 nM | 130 ± 18 nM | 360 ± 32 nM | 230 ± 32 nM | 1880 ± 680 nM | 500 ± 160 nM | 870 ± 65 nM | 400 ± 110 nM | 3809
Cc1cc(C)cc(S(=O)(=O)c2c(C(=O)NCCCCCNS(=O)(=O)c3ccc([N+](=O)[O-])cc3)[nH]c3ccc(Cl)cc23)c1 [R3L5, 5-Chloro-3-((3,5-dimethylphenyl)sulfonyl)-N-(5-((4-nitrophenyl)sulfonamido)pentyl)-1H-indole-2-carboxamide] | > 198000 nM | 130 ± 6.3 nM | 540 ± 140 nM | 250 ± 32 nM | 25140 ± 47 nM | 900 ± 79 nM | 2470 ± 160 nM | 300 nM | >7548
Cc1cc(C)cc(S(=O)(=O)c2c(C(=O)NCCNS(=O)(=O)c3ccc(F)cc3)[nH]c3ccc(Cl)cc23)c1 [R4L2, 5-Chloro-3-((3,5-dimethylphenyl)sulfonyl)-N-(2-((4-fluorophenyl)sulfonamido)ethyl)-1H-indole-2-carboxamide] | > 222000 nM | 210 ± 36 nM | 830 ± 120 nM | 370 ± 110 nM | 3230 ± 18 nM | 360 ± 160 nM | 3000 ± 53 nM | 370 ± 140 nM | >7921
Cc1cc(C)cc(S(=O)(=O)c2c(C(=O)NCCCNS(=O)(=O)c3ccc(F)cc3)[nH]c3ccc(Cl)cc23)c1 [R4L3, 5-Chloro-3-((3,5-dimethylphenyl)sulfonyl)-N-(3-((4-fluorophenyl)sulfonamido)propyl)-1H-indole-2-carboxamide] | 35000 ± 6970 nM | 240 ± 35 nM | 1040 ± 35 nM | 260 ± 17 nM | 3550 ± 350 nM | 450 ± 100 nM | 2840 ± 52 nM | 690 ± 17 nM | 901
Cc1cc(C)cc(S(=O)(=O)c2c(C(=O)NCCCCNS(=O)(=O)c3ccc(F)cc3)[nH]c3ccc(Cl)cc23)c1 [R4L4, 5-Chloro-3-((3,5-dimethylphenyl)sulfonyl)-N-(4-((4-fluorophenyl)sulfonamido)butyl)-1H-indole-2-carboxamide] | > 211000 nM | 56 ± 36 nM | 290 ± 120 nM | 63 ± 3 nM | > 211000 nM | 190 ± 51 nM | 1270 ± 200 nM | 200 ± 34 nM | >10,593
